What was measured:
SCC4 cells [1] = experiment: MTS cell proliferation assay, SCC4; assay type: cell-based, human; conditions: vitamin D resistant SCC4 cells; FIGS. 7c, 8 and 9
Source text: Dose-dependent effects of compounds on cell cycle progression was monitored using a CellTiter 96 Aqueous Non-Radioactive Cell Proliferation Assay Kit (Promega). The assay composed of solutions of a novel tetrazolium compound (MTS) and an electron coupling reagent (phenazine methosulfate; PMS). MTS is reduced by metabolically active cells into a soluble formazan product that absorbs at 490 nm. The quantity of formazan product absorbing at 490 nm is directly proportional to the number of living cells.

SCC4 cells [2] = experiment: LDH cytotoxicity assay, SCC4; assay type: cell-based, human; conditions: vitamin D resistant SCC4 cells; FIGS. 10 and 11
Experimental: The cytotoxic effects of compounds were screened using a Cytotoxicity Assay Kit (Cayman Chemical), which measures release of the soluble […] enzyme lactate dehydrogenase (LDH) from dying cells into the culture medium using a coupled two-step reaction. LDH in the media catalyzes the reduction of NAD+ to NADH and H+ by oxidation of lactate to pyruvate. LDH-catalyzed NADH production is then measured by following diaphorase catalyzed NADH-dependent reduction of a tetrazolium salt (INT) to highly-colored formazan which absorbs strongly at 490-520 nm.

VDR [3] = biological target: T1, VDR (Homo sapiens (Human), UniProt P11473); experiment: VDR agonism: induction of CYP24 gene expression in SCC25 cells (RT/PCR); assay type: cell-based; conditions: for VDR agonism by induction of CYP24 gene expression (screen): test compounds 10 μM, FIG. 1a; for VDR agonist activity/potency (CYP24 induction, dose response): 1d; for induction of CYP24 by the compound blocked (consistent with binding to the VDR): FIG. 1c
T1 sequence (P11473 whole entry): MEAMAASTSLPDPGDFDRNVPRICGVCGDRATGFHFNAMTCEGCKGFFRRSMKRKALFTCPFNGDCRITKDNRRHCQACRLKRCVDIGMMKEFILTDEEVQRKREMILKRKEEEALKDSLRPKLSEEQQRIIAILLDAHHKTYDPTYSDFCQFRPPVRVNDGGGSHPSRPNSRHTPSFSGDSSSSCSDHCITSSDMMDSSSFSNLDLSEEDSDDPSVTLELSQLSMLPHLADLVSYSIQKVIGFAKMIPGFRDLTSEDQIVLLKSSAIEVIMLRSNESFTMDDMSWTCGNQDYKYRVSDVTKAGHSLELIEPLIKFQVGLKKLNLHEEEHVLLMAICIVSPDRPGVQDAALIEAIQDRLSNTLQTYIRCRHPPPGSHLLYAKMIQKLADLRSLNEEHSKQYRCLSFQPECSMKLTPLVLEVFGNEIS
Experimental: RNA isolation and RT/PCR analysis. PCR primers against CYP24 (forward, 5',5'-[NT], reverse, 5'-[NT] designed using Primer3 software as described and used in […]-Mendoza, Quach, T., Dabbas, B., Hudon, J., Liao, X., Palijan, A., Gleason, J. L., and White, J. H. (2008) Incorporation of histone deacetylase inhibition into the structure of a nuclear receptor agonist. Proc. Nat. Acad. Sci. […] After treatment, cells were washed with PBS, homogenized with 1 ml TRIzol Reagent (Invitrogen, Carlsbad, Calif.), kept at room temperature for 2-5 min, collected and kept at -80° C. for at least 1 h. After, thawing 0.2 ml chloroform was added. After vigorous mixing and storing for 10 min, mixtures were centrifuged (10,000 rpm, 15 min, 4° C.) and the upper transparent layer was transferred to a new tube. 0.5 ml isopropanol was added and the new solution was mixed. After centrifuging at 4° C., the supernatant was discarded and 1 ml of 75% ethanol was added. After centrifuging and discarding the supernatant, the pellet was air-dried for 5-10 min, and then dissolved in ddH2O. RNA concentrations were measured using a spectrophotometer, and 1-3 μg of RNA were loaded for reverse transcriptase reactions (total volume: 20 μl). 80 μl of ddH2O was added to the RT-product, and 1.5 μl of that was used as template for the PCR reaction. Reverse transcriptase (Super Script II) was purchased from Invitrogen (Carlsbad, Calif.). DNA polymerase and dNTP's were ordered from Fermentas (Glen Burnie, Md.).

[4] = tested on: total intracellular HDAC activity; experiment: HDACi activity with fluorogenic substrate in live SCC4 cells; assay type: cell-based, human; conditions: increasing concentration, FIG. 2a, b
Source text: (§1) This assay measures the inhibition of total intracellular HDAC activity and determines the capacity of compounds to inhibit HDACs in the form of their naturally occurring complexes.

[5] = tested on: total intracellular HDAC activity; experiment: HDACi activity with fluorogenic substrate in live SCC25 cells; assay type: cell-based, human; conditions: increasing concentration, FIG. 2a, b
Source text: as §1

VDR [6] = biological target: T1, VDR; experiment: Chromatin immunoprecipitation (ChIP) assay, CYP24 promoter, SCC25 cells; assay type: cell-based; conditions: FIG. 1e
Experimental: Chromatin immunoprecipitation assays. ChIP assays were performed with sonicated extracts of SCC25 cells as described (see Wang, T.-T. et al. J Immunol (2004) 173:2909-2912). […] Immunoprecipitations were performed using normal rabbit IgG, anti-VDR antibody (c-20) (Santa Cruz Biotechnology, Santa Cruz, Calif.). […].

[7] = biological target: VDR ligand binding domain (Homo sapiens (Human), UniProt P11473); experiment: Fluorescence polarization (FP) competition assay; conditions: 0.5 nM fluorescent tracer
VDR ligand binding domain, sequence (P11473 127-423): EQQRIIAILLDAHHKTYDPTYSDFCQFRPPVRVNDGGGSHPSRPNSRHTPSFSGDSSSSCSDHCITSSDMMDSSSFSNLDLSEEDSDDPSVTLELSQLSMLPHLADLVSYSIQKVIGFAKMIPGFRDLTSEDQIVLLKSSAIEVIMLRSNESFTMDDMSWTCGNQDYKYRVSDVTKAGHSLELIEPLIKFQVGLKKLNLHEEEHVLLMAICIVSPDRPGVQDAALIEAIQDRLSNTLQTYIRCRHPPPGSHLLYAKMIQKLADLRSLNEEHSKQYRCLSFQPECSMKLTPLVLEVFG
Experimental: Fluorescence polarization (FP) competition assay. The assay was performed using a vitamin D receptor competitor assay kit (Polarscreen, Invitrogen, Carlsbad, Calif.) set up using 0.5 nM fluorescent tracer. The assay measures the decrease in FP accompanying loss of binding to the relatively high molecular weight VDR ligand binding domain of the fluorescent tracer due to the presence of a competitor. FP was measured using an Analyst HT fluorimeter (Molecular Devices) configured with absorption and emissions filters as recommended by the kit manufacturers. Dose response curves and IC50 determination were determined using XLfit (IDBS) Sigmoidal Dose-Response Model [fit=(A+((B−A)/(1+((C/x)^D)))); inv=(C/((((B−A)/(y−A))−1)^(1/D))); res=(y−fit)].

SCC4 cells [8] = experiment: EdU cell growth assay, SCC4; conditions: 1,25D-resistant SCC4 cells; FIG. 2e, f
Experimental: EdU Cell Growth Assay. Click-iT EdU Alexa Fluor high-throughput imaging (HCS) assay for cell proliferation. HCS assays were performed on AT84 mouse squamous carcinoma cell line (ATCC) following the manufacturer's instruction (Molecular Probes, Invitrogen). […] All samples were in triplicate.

Structure (SMILES): CCC(CC)(c1ccc(OCC(O)C(C)(C)C)c(C)c1)c1cc(C)c(CCC(=O)NO)s1 (stereo not shown) [DK-178, N-hydroxy-3-(5-(3-(4-(2-hydroxy-3,3-dimethylbutoxy)-3-methylphenyl)pentan-3-yl)-3-methylthiophen-2-yl)propanamide]
- antiproliferative potency (MTS) (SCC4 cells [1]): low micromolar potency

Structure (SMILES): CCC(CC)(c1ccc(OCC(O)C(C)(C)C)c(C)c1)c1c[nH]c2cc(CCC(=O)NO)ccc12 (stereo not shown) [DK-222]
- cytotoxicity (LDH release) (SCC4 cells [2]): good cytotoxicity
- antiproliferative potency (MTS) (SCC4 cells [1]): low micromolar potency

Structure (SMILES): CCC(CC)(c1ccc(OCC(O)C(C)(C)C)c(C)c1)c1cn(C)c2cc(CCC(=O)NO)ccc12 (stereo not shown) [DK-234, N-hydroxy-3-(3-(3-(4-(2-hydroxy-3,3-dimethylbutoxy)-3-methylphenyl)pentan-3-yl)-1-methyl-1H-indol-6-yl)propanamide]
- antiproliferative potency (MTS) (SCC4 cells [1]): low micromolar potency

Structure (SMILES): CCC(CC)(c1ccc(OCC(O)C(C)(C)C)c(C)c1)c1ccc(OCC(=O)NO)c(Br)c1 (stereo not shown) [DK-309, 2-(2-bromo-4-(3-(4-(2-hydroxy-3,3-dimethylbutoxy)-3-methylphenyl)pentan-3-yl)phenoxy)-N-hydroxyacetamide]
- cytotoxicity (LDH release) (SCC4 cells [2]): good cytotoxicity

Structure (SMILES): CCC(CC)(c1ccc(OCC(=O)NO)cc1)c1ccc(OCC(O)C(C)(C)C)c(C)c1 (stereo not shown) [DK-366, N-hydroxy-2-(4-(3-(4-(2-hydroxy-3,3-dimethylbutoxy)-3-methylphenyl)pentan-3-yl)phenoxy)acetamide]
- cytotoxicity (LDH release) (SCC4 cells [2]): good cytotoxicity
- antiproliferative potency (MTS) (SCC4 cells [1]): low micromolar potency

Structure (SMILES): CCC(CC)(c1ccc(OCCCCCC(=O)NO)cc1)c1ccc(OCC(O)C(C)(C)C)c(C)c1 (stereo not shown) [DK-367]
- antiproliferative potency (MTS) (SCC4 cells [1]): low micromolar potency

Structure (SMILES): CCC(CC)(c1ccc(OCC(=O)NO)c(C)c1)c1ccc(OCC(=O)NO)c(C)c1 [JF-B06]
- VDR agonism by induction of CYP24 gene expression (screen) (VDR [3]): completely inactive as VDR agonists

Structure (SMILES): CCC(CC)(c1ccc(OCC(=O)NO)c(C)c1)c1ccc(OCC(CO)CO)c(C)c1 [JF-B21]
- VDR agonism by induction of CYP24 gene expression (screen) (VDR [3]): completely inactive as VDR agonists

Structure (SMILES): CCC(CC)(c1ccc(OCC(=O)NO)c(C)c1)c1ccc(OCC(O)CO)c(C)c1 (stereo not shown) [JF-B40]
- VDR agonism by induction of CYP24 gene expression (screen) (VDR [3]): completely inactive as VDR agonists

Structure (SMILES): CCC(CC)(c1ccc(OCCO)c(C)c1)c1ccc(OCC(=O)NO)c(C)c1 [JF-B52, N-Hydroxy-2-(4-(3-(4-(2-hydroxyethoxy)-3-methylphenyl)pentan-3-yl)-2-methylphenoxy)acetamide]
- VDR agonism by induction of CYP24 gene expression (screen) (VDR [3]): completely inactive as VDR agonists

Structure (SMILES): CCC(CC)(c1ccc(OCC(=O)NO)c(C)c1)c1ccc(OCC(C)(C)O)c(C)c1 [JF-B53, N-Hydroxy-2-(4-(3-(4-(2-hydroxy-2-methylpropoxy)-3-methylphenyl)pentan-3-yl)-2-methylphenoxy)acetamide]
- VDR agonist activity/potency (CYP24 induction, dose response) (VDR [3]; FIG. 1b): showed VDR agonist activity, but with reduced potency
- induction of CYP24 by the compound blocked (consistent with binding to the VDR) (VDR [3]): blocked

Structure (SMILES): CCC(O)(CC)COc1ccc(C(CC)(CC)c2ccc(OCC(=O)NO)c(C)c2)cc1C [JF-B54, 2-(4-(3-(4-(2-Ethyl-2-hydroxybutoxy)-3-methylphenyl)pentan-3-yl)-2-methylphenoxy)-N-hydroxyacetamide]
- VDR agonist activity/potency (CYP24 induction, dose response) (VDR [3]; FIG. 1b): showed VDR agonist activity, but with reduced potency
- induction of CYP24 by the compound blocked (consistent with binding to the VDR) (VDR [3]): blocked
- inhibition of total intracellular HDAC activity (substrate deacetylation) [4]: the most potent
- inhibition of total intracellular HDAC activity (substrate deacetylation) [5]: the most potent

Structure (SMILES): CCC(CC)(c1ccc(OCC(=O)NO)c(C)c1)c1ccc(OCC(=O)C(C)(C)C)c(C)c1 [JF-B59, 2-(4-(3-(4-(3,3-dimethyl-2-oxobutoxy)-3-methylphenyl)pentan-3-yl)-2-methylphenoxy)-N-hydroxyacetamide]
- VDR agonist potency relative to JF-B01 (fold lower) (VDR [3]; FIG. 1b): > 10 fold

Structure (SMILES): CCC(CC)(c1ccc(OCC(=O)O)c(C)c1)c1ccc(OCC(=O)C(C)(C)C)c(C)c1 [JF-C11]
- VDR agonism by induction of CYP24 gene expression (screen) (VDR [3]): showed some agonist activity

Structure (SMILES): CCC(CC)(c1ccc(OCC(=O)NO)c(C)c1)c1ccc(OC[C@H](O)C(C)(C)C)c(C)c1 [JF-C71, N-Hydroxy-2-(4-(3-(4-((2R)-hydroxy-3,3-dimethylbutoxy)-3-methylphenyl)pentan-3-yl)-2-methylphenoxy)acetamide]
- VDR agonist activity/potency (CYP24 induction, dose response) (VDR [3]; FIG. 1b): VDR agonists with similar potencies
- binding of the VDR to the vitamin D response element in the proximal promoter of the CYP24 gene (ChIP) (VDR [6]): induced binding of the VDR to the vitamin D response element
- antiproliferative potency (MTS) (SCC4 cells [1]): low micromolar potency
- IC50 [7]: ~100 nM

Structure (SMILES): CCC(CC)(c1ccc(OCC(=O)NO)c(C)c1)c1ccc(OC[C@@H](O)C(C)(C)C)c(C)c1 [JF-C72]
- VDR agonist activity/potency (CYP24 induction, dose response) (VDR [3]; FIG. 1b): VDR agonists with similar potencies
- binding of the VDR to the vitamin D response element in the proximal promoter of the CYP24 gene (ChIP) (VDR [6]): induced binding of the VDR to the vitamin D response element
- antiproliferative potency (MTS) (SCC4 cells [1]): low micromolar potency
- IC50 [7]: ~35 nM

Structure (SMILES): CCC(CC)(c1ccc(OCCCC(=O)NO)c(C)c1)c1ccc(OC[C@H](O)C(C)(C)C)c(C)c1 [JFD-15]
- antiproliferative potency (MTS) (SCC4 cells [1]): low micromolar potency

Structure (SMILES): CCC(CC)(c1ccc(CCC(=O)NO)c(C)c1)c1ccc(OC[C@H](O)C(C)(C)C)c(C)c1 [JFD-50]
- antiproliferative potency (MTS) (SCC4 cells [1]): low micromolar potency

Structure (SMILES): CCC(CC)(c1ccc(OCC(O)CO)c(C)c1)c1ccc(OCC(O)C(C)(C)C)c(C)c1 (stereo not shown) [LG190178]
- inhibition of proliferation (EdU incorporation) (SCC4 cells [8]): failed to block SCC4 proliferation
